Laboratory results taken from patent US7582618B2 (priority 2002, dated 2009).
“Also recorded” adds a separate entry of the source. Like-named read-outs stand apart in the source and are kept apart here.

How the values were obtained:
HepG2 cells [1] = assay: Mitochondrial DNA content (mtDNA/nuclear DNA); assay type: cell-based, human; settings: 10 μM
Experimental: To assess the potential of mCyd to produce mitochondrial toxicity, several in vitro studies were conducted using the human hepatoma cell lines HepG2 or Huh7.
• a. HepG2 or huh7 cells were treated with compounds for 4 days, data represent at least three independent experiments • b. HepG2 cells were treated with compounds for 6 and 14 days, data represents at least three independent experiments • c. HepG2 cells were treated with compounds for 14 days • d. 17% cell (11 of 64) contained 1 or 2 enlarged mitochondria out of 25 in two independent experiments nd, not determined

[2] = tested on: BVDV NADL cp in MDBK cells; assay: Yield reduction assay; assay type: cell-based, bovine viral diarrhea virus
[3] = tested on: BVDV I-N-dlns ncp in MDBK cells; assay: microbe, parasite or virus in culture; assay type: cell-based; settings: Bovine viral diarrhea virus isolates and strains, read-out: Antiviral Efficacy EC90
[4] = tested on: BVDV NADL cp in MDBK cells; assay: Plaque reduction assay; assay type: cell-based; settings: Bovine viral diarrhea virus isolates and strains
Experimental: For each compound the effective concentration was determined in duplicate 24-well plates by plaque reduction assays. Cell monolayers were infected with 100 PFU/well of virus. Then, serial dilutions of test compounds in MEM supplemented with 2% inactivated serum and 0.75% of methyl cellulose were added to the monolayers. Cultures were further incubated at 37° C. for 3 days, then fixed with 50% ethanol and 0.8% Crystal Violet, washed and air-dried. Then plaques were counted to determine the concentration to obtain 90% virus suppression.

DENV-4 in BHK cells = assay: Cell protection assay; assay type: cell-based; settings: Dengue virus, DENV4, DENV-4, BHK
YFV = assay: microbe, parasite or virus in culture; assay type: cell-based; settings: Yellow fever virus, read-out: YFV (Table 8b)
Sb-1 = assay: microbe, parasite or virus in culture; assay type: cell-based, poliovirus Sabin type-1; settings: Enterovirus C
CVB-3 = assay: microbe, parasite or virus in culture; assay type: cell-based, Coxsackievirus B-3; settings: Coxsackievirus, read-out: EC50 CVB-3
CVA-9 = assay: microbe, parasite or virus in culture; assay type: cell-based, Coxsackievirus A-9; settings: Coxsackievirus, read-out: EC50 CVA-9
WNV (Vero) = assay: microbe, parasite or virus in culture; assay type: cell-based; settings: West Nile virus
YFV (Vero) = assay: microbe, parasite or virus in culture; assay type: cell-based; settings: Yellow fever virus
[5] = tested on: Parainfluenzatype 3 (MA-104); assay: organism not typed; assay type: cell-based; settings: MA104
[6] = tested on: different strains of BVDV; assay: BVDV cell protection, plaque reduction and yield reduction assays, summary over strains; assay type: cell-based; settings: Bovine viral diarrhea virus isolates and strains, all three assays
[7] = tested on: BVDV (strain I-N-dIns), noncytopathic; assay type: cell-based, bovine viral diarrhea virus
Cytotoxicity (Table 10) [8] = settings: human, A549 cells
Cytotoxicity (Table 10) [9] = settings: rhesus monkey, MA-104 cells
[10] = Human bone marrow clonogenic assay
[11] = Human bone marrow clonogenic assay; remark: listed apart in the source
[12] = In vitro stability in human plasma; settings: human plasma or crude human cytidine/deoxycytidine deaminase preparation, 37° C.
[13] = Cytotoxicity (cell proliferation) assay; settings: human, Huh7 hepatoma cells
[14] = Cytotoxicity (cell proliferation) assay; settings: human
[15] = Cytotoxicity (cell proliferation) assay; settings: bovine, MDBK kidney cells
[16] = Cytotoxicity (cell proliferation) assay; settings: hamster, BHK-21 kidney cells
Huh7 cells = assay: Mitochondria toxicity assay, lactic acid production; settings: 10 μM, 4 days
[17] = Cytotoxicity on uninfected cells in parallel to the CPA; settings: bovine, uninfected MDBK kidney cells
HepG2 cells [18] = assay: Transmission electron microscopy of mitochondrial ultrastructure; settings: 10 μM, 14 days
[19] = Cellular DNA or RNA synthesis ([3H]-thymidine / [3H]-uridine incorporation); settings: human, HepG2 cells

Q: What does the source list for `CC1(O)C(O)C(CO)OC1n1ccc(N)nc1=O` (centres unmarked) [mCyd, 4-Amino-1-(3,4-dihydroxy-5-hydroxymethyl-3-methyl-tetrahydro-furan-2-yl)-1H-pyrimidine-2-one]?
A: mtDNA/nuclear DNA (% of Control), 6 day Treatment (HepG2 cells [1]): 117.3 ± 17.5 % of Control; mtDNA/nuclear DNA (% of Control), 14 day Treatment (HepG2 cells [1]): 99.7 ± 23.9 % of Control; EC50 ([2]; Bovine viral diarrhea virus isolates and strains, yield reduction, BVDV NADL cp, MDBK): 2.77 ± 1.16 µM; EC90 ([2]; Bovine viral diarrhea virus isolates and strains, yield reduction, BVDV NADL cp, MDBK, read-out: Antiviral Efficacy EC90): 4.8 ± 1.55 µM; suppression of de novo BVDV production ([2]; yield reduction assay, circa 20 μM): up to 6 log10; Antiviral Efficacy EC4 log ([2]; yield reduction, BVDV NADL cp, MDBK): 13.9 ± 3.07 μM; EC90 [3]: 1.49 µM; EC50 [4]: 2.57 ± 0.35 µM; EC90 ([4]; read-out: Antiviral Efficacy EC90): 4.63 ± 0.72 µM; EC50 (DENV-4 in BHK cells): 59 µM; EC50 (YFV): 54 µM; EC50 (Sb-1; read-out: EC50 Sb-1): 6 µM; EC50 (Sb-1; read-out: Sb-1 (Table 8b)): 11.5 µM; EC50 (CVB-3): 9 µM; EC50 (CVA-9): 26 µM; EC50 (WNV (Vero)): 46 µM; EC50 (YFV (Vero)): 9 to 30 µM; EC50 [5]: > 200 µM; EC50 ([6]; read-out: range of EC50 values against BVDV): 0.3 to 2.8 µM; EC90 ([6]; read-out: range of EC90 values against BVDV): 0.87 to 4.8 µM; virus detection under prolonged treatment ([7]; 8 μM, after two passages, re-emerged by passage 6): no longer detectable; virus production ([7]; 16 μM, from more than 6 logs of virus per ml, within two cell passages): undetectable levels; CC50 (Cytotoxicity (Table 10) [8]): > 200 µM; CC50 (Cytotoxicity (Table 10) [9]): 200 µM; CC50 (Cytotoxicity (Table 10) [9]; CC50, MA-104, Parainfluenza type 3 row): > 200 µM; CC50 [10]: 14.1 ± 4.5 µM; CC50 [11]: 13.9 ± 3.2 µM; in vitro stability / deamination to mUrd [12]: remained essentially unchanged; CC50 at 4 days [13]: > 250 µM; CC50 [14]: > 200 µM; CC50 ([14]; HepG2 hepatoma cells on collagen-coated plates, CC50, HepG2 grown on collagen coated plates for 4 or 10 d): ≥ 200 µM; CC50 at 4 days ([14]; HepG2 hepatoma cells, CC50, HepG2, rapid cell division): 161 µM; CC50 at 4 days [15]: 36 µM; CC50 at 4 days [16]: 132 µM; L-Lactate (% of Control), Huh7 Cells (Huh7 cells): 98.0 ± 12.3 % of Control; CC50 at 4 days [17]: 38 ± 9 µM; Electron Microscopy, Lipid Droplet Form. (HepG2 cells [18]): Negative; Electron Microscopy, Mito. Morphol. (HepG2 cells [18]): No changes in cell architecture, or in mitochondrial number or morphology; also recorded: Normal^d; cells with 1 to 2 enlarged mitochondria out of an average of 25 per cell (HepG2 cells [18]): 17%; CC50 ([19]; probe [3H]-thymidine, CC50 DNA ([3H]Thymidine), 50% reduction of thymidine incorporation into cellular DNA): 112 µM; CC50 ([19]; probe [3H]-uridine, CC50 RNA ([3H]Uridine), 50% reduction of uridine incorporation into cellular RNA): 186 µM
